Measurements from patent US11045453B1 (priority 2020, dated 2021).
Entries after “also recorded” stand apart in the source; their conditions may differ.

Assays:
[1] = tested on: SARS-CoV-2 clinical isolate (2019-nCoV/USA-WA1/2020); type: cell-based
[2] = tested on: VSVpp+SARS-2-S Δ18 in Vero-E6 cells; type: cell-based, African green monkey
[3] = target: Human Activated Protein C (Homo sapiens, UniProt P04070); experiment: Ki determination, chromogenic substrate cleavage; type: biochemical; conditions: read-out: Ki Mean ± SD (n)
Human Fxa = target: T1, Human Fxa (Homo sapiens, UniProt P00742); experiment: Ki determination, chromogenic substrate cleavage; type: biochemical; conditions: read-out: Ki Mean ± SD (n)
T1 construct: Human Fxa

Human Hepsin = Human Hepsin (Homo sapiens, UniProt P05981); experiment: Ki determination, chromogenic substrate cleavage; type: biochemical; conditions: read-out: Ki Mean ± SD (n)
Sequence of Human Hepsin (P05981 whole entry): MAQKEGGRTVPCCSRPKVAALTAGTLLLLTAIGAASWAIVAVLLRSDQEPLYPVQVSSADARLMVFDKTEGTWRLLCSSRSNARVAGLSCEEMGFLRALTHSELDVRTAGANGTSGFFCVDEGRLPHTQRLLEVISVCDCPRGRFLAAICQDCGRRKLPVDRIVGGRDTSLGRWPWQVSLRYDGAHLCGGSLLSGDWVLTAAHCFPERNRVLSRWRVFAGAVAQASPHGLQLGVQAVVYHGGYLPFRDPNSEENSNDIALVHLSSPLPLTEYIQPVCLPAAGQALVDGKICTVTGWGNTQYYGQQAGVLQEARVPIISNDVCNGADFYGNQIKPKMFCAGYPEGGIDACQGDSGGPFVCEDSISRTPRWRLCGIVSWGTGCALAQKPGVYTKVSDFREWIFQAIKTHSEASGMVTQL

[4] = tested on: VSVpp+SARS-2-S Δ18 in Calu-3 cells; type: cell-based, human
Human two-chain tPA = target: T2, Human two-chain tPA (Homo sapiens, UniProt P00750); experiment: Ki determination, chromogenic substrate cleavage; type: biochemical; conditions: read-out: Ki Mean ± SD (n)
T2 construct: Human two-chain tPA
T2 sequence (P00750 311-562 limits assumed): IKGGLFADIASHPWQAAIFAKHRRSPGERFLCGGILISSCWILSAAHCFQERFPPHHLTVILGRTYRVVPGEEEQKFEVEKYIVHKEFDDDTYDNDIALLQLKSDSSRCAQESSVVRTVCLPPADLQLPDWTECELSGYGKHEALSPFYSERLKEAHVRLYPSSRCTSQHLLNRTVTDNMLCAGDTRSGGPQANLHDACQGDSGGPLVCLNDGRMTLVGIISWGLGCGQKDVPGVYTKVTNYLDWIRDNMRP
T2 sequence (P00750 36-310 partner limits assumed): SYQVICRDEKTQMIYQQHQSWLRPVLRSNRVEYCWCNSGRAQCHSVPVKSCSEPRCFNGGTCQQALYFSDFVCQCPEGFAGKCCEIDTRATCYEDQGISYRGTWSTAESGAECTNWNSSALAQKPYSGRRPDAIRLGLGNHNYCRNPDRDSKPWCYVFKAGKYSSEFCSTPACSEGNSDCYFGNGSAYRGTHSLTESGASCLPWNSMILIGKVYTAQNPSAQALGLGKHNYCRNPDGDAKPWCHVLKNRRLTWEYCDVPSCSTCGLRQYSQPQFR

Human Spinesin = Human Spinesin (Homo sapiens, UniProt Q9H3S3); experiment: Ki determination, chromogenic substrate cleavage; type: biochemical; conditions: read-out: Ki Mean ± SD (n)
Human TMPRSS2 = target: T3, Human TMPRSS2 (Homo sapiens, UniProt O15393); experiment: Ki determination, chromogenic substrate cleavage; type: biochemical; conditions: read-out: Ki Mean ± SD (n)
T3 construct: purchased MyBioSource MBS1193731; host or cells: mammalian expression system
T3 sequence (O15393 whole entry): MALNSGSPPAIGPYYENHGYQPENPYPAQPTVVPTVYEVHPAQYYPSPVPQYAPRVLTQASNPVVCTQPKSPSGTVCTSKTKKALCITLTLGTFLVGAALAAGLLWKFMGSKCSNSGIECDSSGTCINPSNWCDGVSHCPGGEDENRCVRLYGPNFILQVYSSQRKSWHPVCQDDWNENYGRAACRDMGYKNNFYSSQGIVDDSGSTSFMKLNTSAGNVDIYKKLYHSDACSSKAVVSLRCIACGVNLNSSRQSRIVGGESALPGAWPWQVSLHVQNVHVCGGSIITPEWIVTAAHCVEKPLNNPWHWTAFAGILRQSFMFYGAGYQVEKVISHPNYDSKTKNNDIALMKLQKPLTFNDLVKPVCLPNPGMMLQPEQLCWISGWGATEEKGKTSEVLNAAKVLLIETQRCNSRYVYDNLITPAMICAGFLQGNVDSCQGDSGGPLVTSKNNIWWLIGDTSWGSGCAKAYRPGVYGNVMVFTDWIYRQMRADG
Experimental: The Ki was determined to be 2.9±0.04 (3) μM.

Human PRSS27 = Human PRSS27 (Homo sapiens, UniProt Q9BQR3); experiment: Protease inhibition (IC50), chromogenic substrate cleavage; type: biochemical; conditions: listed as marked (IC50) in the Ki column, read-out: IC50 Mean ± SD (n)
Sequence of Human PRSS27 (Q9BQR3 35-290): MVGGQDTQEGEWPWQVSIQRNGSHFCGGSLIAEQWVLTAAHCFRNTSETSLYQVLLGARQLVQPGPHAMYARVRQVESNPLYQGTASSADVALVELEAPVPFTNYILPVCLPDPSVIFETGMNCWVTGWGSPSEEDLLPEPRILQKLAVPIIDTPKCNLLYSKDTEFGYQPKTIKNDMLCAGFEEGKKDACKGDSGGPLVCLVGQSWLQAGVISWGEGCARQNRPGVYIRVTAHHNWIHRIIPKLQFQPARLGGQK

[5] = target: Human uPA (H99A in medium) (Homo sapiens, UniProt P00749, H272A); experiment: Ki determination, chromogenic substrate cleavage; type: biochemical; conditions: read-out: Ki Mean ± SD (n)
Human Kallikrein-8 = Human Kallikrein-8 (Homo sapiens, UniProt O60259); experiment: Ki determination, chromogenic substrate cleavage; type: biochemical; conditions: read-out: Ki Mean ± SD (n)
Sequence of Human Kallikrein-8 (O60259 33-260): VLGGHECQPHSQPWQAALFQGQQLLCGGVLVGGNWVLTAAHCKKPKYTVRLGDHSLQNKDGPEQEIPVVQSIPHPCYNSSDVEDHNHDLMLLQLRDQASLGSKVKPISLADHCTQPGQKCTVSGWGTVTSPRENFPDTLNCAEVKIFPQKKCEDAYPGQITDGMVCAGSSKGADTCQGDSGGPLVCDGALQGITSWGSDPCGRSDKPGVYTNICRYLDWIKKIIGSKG

Human DESC-1 = Human DESC-1 (Homo sapiens, UniProt Q9UL52); experiment: Ki determination, chromogenic substrate cleavage; type: biochemical; conditions: read-out: Ki Mean ± SD (n)
Human uPA = Human uPA (Homo sapiens, UniProt P00749); experiment: Ki determination, chromogenic substrate cleavage; type: biochemical; conditions: read-out: Ki Mean ± SD (n)
Human C1s = Human C1s (Homo sapiens, UniProt P09871); experiment: Ki determination, chromogenic substrate cleavage; type: biochemical; conditions: read-out: Ki Mean ± SD (n)
[6] = tested on: VSV-G pseudotypes in Calu-3 cells; type: cell-based, human
Human Plasmin = target: T4, Human Plasmin (Homo sapiens, UniProt P00747); experiment: Ki determination, chromogenic substrate cleavage; type: biochemical; conditions: read-out: Ki Mean ± SD (n)
T4 construct: Human Plasmin

Human Trypsin-2 = Human Trypsin-2 (Homo sapiens, UniProt P07478); experiment: biochemical
Sequence of Human Trypsin-2 (P07478 24-247): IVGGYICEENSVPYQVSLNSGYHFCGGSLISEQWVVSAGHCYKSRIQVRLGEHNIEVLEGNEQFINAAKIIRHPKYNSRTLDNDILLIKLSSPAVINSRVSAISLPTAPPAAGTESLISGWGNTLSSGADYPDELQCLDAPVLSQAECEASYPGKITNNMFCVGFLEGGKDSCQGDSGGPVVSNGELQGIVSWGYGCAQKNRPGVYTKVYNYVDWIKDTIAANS

Mouse uPA = Mouse uPA (Mus musculus, UniProt P06869); experiment: Ki determination, chromogenic substrate cleavage; type: biochemical; conditions: read-out: Ki Mean ± SD (n)
Human Plasma Kallikrein = Human Plasma Kallikrein (Homo sapiens, UniProt P03952); experiment: Ki determination, chromogenic substrate cleavage; type: biochemical; conditions: read-out: Ki Mean ± SD (n)
Sequence of Human Plasma Kallikrein (P03952 20-638): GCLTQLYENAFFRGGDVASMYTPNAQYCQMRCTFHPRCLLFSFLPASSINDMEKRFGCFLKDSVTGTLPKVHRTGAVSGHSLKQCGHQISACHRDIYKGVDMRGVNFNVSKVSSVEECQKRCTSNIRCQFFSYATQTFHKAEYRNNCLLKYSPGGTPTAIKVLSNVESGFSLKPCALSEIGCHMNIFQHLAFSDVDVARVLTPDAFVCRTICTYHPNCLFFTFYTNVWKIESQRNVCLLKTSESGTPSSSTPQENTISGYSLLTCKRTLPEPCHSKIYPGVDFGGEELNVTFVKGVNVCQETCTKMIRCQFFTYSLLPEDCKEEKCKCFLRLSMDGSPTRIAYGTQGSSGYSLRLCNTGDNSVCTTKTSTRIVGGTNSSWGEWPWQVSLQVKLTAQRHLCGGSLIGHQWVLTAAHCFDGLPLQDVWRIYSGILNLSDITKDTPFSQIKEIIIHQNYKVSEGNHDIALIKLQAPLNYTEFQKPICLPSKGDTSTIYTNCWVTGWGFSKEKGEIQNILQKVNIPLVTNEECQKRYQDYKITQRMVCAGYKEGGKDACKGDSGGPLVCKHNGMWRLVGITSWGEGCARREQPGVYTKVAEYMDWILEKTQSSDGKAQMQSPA

[7] = target: Human uPA (Q192A in medium) (Homo sapiens, UniProt P00749, Q373A); experiment: Ki determination, chromogenic substrate cleavage; type: biochemical; conditions: read-out: Ki Mean ± SD (n)
Human Thrombin = target: T5, Human Thrombin (Homo sapiens, UniProt P00734); experiment: Ki determination, chromogenic substrate cleavage; type: biochemical; conditions: read-out: Ki Mean ± SD (n)
T5 construct: Human Thrombin

Human Enterokinase = Human Enterokinase (Homo sapiens, UniProt P98073); experiment: Ki determination, chromogenic substrate cleavage; type: biochemical; conditions: read-out: Ki Mean ± SD (n)
Human Trypsin-1 = Human Trypsin-1 (Homo sapiens, UniProt P07477); experiment: biochemical
Human FIXa = target: T6, Human FIXa (Homo sapiens, UniProt P00740); experiment: Ki determination, chromogenic substrate cleavage; type: biochemical; conditions: read-out: Ki Mean ± SD (n)
T6 construct: Human FIXa

Human Trypsin-6 = Human Trypsin-6 (Homo sapiens, UniProt Q8NHM4); experiment: Ki determination, chromogenic substrate cleavage; type: biochemical; conditions: read-out: Ki Mean ± SD (n)
Sequence of Human Trypsin-6 (Q8NHM4 16-247): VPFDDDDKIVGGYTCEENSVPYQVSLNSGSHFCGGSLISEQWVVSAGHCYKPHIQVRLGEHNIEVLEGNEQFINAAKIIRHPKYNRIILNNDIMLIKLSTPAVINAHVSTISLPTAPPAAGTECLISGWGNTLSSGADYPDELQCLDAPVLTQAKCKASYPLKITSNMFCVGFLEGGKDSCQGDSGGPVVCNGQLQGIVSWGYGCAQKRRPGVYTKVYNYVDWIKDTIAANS

Rat uPA = Rat uPA (Rattus norvegicus, UniProt P29598); experiment: Ki determination, chromogenic substrate cleavage; type: biochemical; conditions: read-out: Ki Mean ± SD (n)
Human Granzyme A = Human Granzyme A (Homo sapiens, UniProt P12544); experiment: Ki determination, chromogenic substrate cleavage; type: biochemical; conditions: read-out: Ki Mean ± SD (n)
Sequence of Human Granzyme A (P12544 29-262): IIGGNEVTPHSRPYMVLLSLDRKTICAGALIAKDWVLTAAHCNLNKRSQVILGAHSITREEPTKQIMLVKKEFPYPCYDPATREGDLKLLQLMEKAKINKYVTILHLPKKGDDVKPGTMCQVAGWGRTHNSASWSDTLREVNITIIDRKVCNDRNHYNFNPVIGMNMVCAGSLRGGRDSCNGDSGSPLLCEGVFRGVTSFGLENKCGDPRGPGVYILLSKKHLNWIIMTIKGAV

Human Trypsin-3 = Human Trypsin-3 (Homo sapiens, UniProt P35030); experiment: biochemical
Human HAT = Human HAT (Homo sapiens, UniProt O60235); experiment: Ki determination, chromogenic substrate cleavage; type: biochemical; conditions: read-out: Ki Mean ± SD (n)
Sequence of Human HAT (O60235 whole entry): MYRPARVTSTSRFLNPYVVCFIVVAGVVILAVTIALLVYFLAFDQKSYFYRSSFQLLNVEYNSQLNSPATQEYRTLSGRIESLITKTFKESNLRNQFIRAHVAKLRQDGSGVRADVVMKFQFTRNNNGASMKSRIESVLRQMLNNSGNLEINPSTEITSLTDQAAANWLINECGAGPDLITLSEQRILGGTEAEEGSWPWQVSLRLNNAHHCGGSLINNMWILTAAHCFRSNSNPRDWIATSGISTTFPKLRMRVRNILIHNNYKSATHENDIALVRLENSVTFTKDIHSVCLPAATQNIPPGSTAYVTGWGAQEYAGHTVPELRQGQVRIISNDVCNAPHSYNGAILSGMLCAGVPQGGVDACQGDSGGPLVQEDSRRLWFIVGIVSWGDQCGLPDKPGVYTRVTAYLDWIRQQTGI

Rabbit uPA = Rabbit uPA (Oryctolagus cuniculus, UniProt Q8MHY7); experiment: Ki determination, chromogenic substrate cleavage; type: biochemical; conditions: read-out: Ki Mean ± SD (n)
Human HGFA = Human HGFA (Homo sapiens, UniProt Q04756); experiment: Ki determination, chromogenic substrate cleavage; type: biochemical; conditions: read-out: Ki Mean ± SD (n)
Human Matriptase-2 = Human Matriptase-2 (Homo sapiens, UniProt Q8IU80); experiment: Ki determination, chromogenic substrate cleavage; type: biochemical; conditions: read-out: Ki Mean ± SD (n)
Human TMPRSS11(A) = target: T7, Human TMPRSS11(A) (Homo sapiens, UniProt Q6ZMR5); experiment: Ki determination, chromogenic substrate cleavage; type: biochemical; conditions: read-out: Ki Mean ± SD (n)
T7 construct: purchased MyBioSource MBS1345824; host or cells: mammalian expression system
T7 sequence (Q6ZMR5 whole entry): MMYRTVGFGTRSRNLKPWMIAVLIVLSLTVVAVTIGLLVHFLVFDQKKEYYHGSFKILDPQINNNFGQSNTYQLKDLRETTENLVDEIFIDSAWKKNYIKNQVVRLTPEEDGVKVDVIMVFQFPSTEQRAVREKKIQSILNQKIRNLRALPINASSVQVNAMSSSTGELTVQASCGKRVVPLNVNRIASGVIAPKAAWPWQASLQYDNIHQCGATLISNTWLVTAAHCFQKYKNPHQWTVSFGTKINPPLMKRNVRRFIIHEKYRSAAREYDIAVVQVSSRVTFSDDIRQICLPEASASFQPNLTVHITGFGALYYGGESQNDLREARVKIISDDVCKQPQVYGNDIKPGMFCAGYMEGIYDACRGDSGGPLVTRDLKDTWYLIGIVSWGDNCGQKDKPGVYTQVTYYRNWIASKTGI
Experimental: The Ki was determined to be 0.39±0.01 (3) μM.

Human Prostasin = Human Prostasin (Homo sapiens, UniProt Q16651); experiment: Protease inhibition (IC50), chromogenic substrate cleavage; type: biochemical; conditions: listed as marked (IC50) in the Ki column, read-out: IC50 Mean ± SD (n)
Human FXIa = target: T8, Human FXIa (Homo sapiens, UniProt P03951); experiment: Ki determination, chromogenic substrate cleavage; type: biochemical; conditions: read-out: Ki Mean ± SD (n)
T8 construct: Human FXIa
T8 sequence (P03951 388-625 limits assumed): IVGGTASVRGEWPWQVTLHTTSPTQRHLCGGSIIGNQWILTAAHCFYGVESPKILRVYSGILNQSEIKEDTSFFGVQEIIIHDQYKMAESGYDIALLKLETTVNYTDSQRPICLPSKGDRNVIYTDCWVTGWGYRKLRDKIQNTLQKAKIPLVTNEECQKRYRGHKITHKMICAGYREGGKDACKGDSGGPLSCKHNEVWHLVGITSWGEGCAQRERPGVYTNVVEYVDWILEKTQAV
T8 sequence (P03951 19-387 partner limits assumed): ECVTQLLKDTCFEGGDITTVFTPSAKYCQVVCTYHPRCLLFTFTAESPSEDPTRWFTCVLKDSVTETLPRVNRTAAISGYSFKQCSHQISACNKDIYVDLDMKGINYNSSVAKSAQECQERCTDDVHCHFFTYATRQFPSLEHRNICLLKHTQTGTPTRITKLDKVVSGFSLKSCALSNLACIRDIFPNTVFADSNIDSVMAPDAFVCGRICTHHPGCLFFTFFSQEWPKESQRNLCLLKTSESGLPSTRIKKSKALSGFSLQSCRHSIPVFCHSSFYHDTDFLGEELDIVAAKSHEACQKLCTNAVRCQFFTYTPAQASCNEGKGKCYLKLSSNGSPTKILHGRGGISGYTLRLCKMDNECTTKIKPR

Human Kallikrein-11 = Human Kallikrein-11 (Homo sapiens, UniProt Q9UBX7); experiment: Ki determination, chromogenic substrate cleavage; type: biochemical; conditions: read-out: Ki Mean ± SD (n)
Human Kallikrein-1 = Human Kallikrein-1 (Homo sapiens, UniProt P06870); experiment: Ki determination, chromogenic substrate cleavage; type: biochemical; conditions: read-out: Ki Mean ± SD (n)
[8] = target: Bovine Cationic Trypsin-1 (Bos taurus, UniProt P00760); experiment: Ki determination, chromogenic substrate cleavage; type: biochemical; conditions: read-out: Ki Mean ± SD (n)

4-[[4-[(Aminoiminomethyl)amino]benzoyl]oxy] benzeneacetic acid 2-(dimethylamino)-2-oxoethyl ester methanesulfonate [camostat, reference compound]
antiviral activity / viral replication [1]: inhibited
inhibition of SARS-2-S-driven pseudotype entry [2]: inactive

CCN(CC)CCCC(C)Nc1ccnc2cc(Cl)ccc12 (centres unmarked) [chloroquine]
inhibition of S protein-driven entry [2]: potently inhibited

CCOC(=O)N1CCN(C(=O)[C@H](Cc2cccc(C(=N)N)c2)NS(=O)(=O)c2c(C(C)C)cc(C(C)C)cc2C(C)C)CC1 [WX-UK1, N-α-(2,4,6-triisopropylphenylsulfonyl)-3-amidino-phenylalanine-4-ethoxycarbonylpiperazide]
antiviral activity / viral replication [1]: potent antiviral activity; also recorded: inhibited
infectious virus production, TCID50 assay in apical washes [1]: dose-dependent reduction
reduction in viral load by TCID50 ([1]; lowest concentration 3.33 μg/ml, […]): 4 log
Ki [3]: 3900 ± 200 nM
Ki (Human Fxa): 2600 ± 400 nM
Ki (Human Hepsin): 4300 ± 500 nM
inhibition of SARS-2-S-driven pseudotype entry [4]: moderate inhibitory activity
Ki (Human two-chain tPA): 1400 ± 100 nM
Ki (Human Spinesin): 7700 ± 500 nM
Ki (Human TMPRSS2): 2900 ± 40 nM
IC50 (Human PRSS27): 19000 ± 4000 nM
Ki [5]: 14000 ± 400 nM
Ki (Human Kallikrein-8): > 250000 nM
Ki (Human DESC-1): 13000 ± 2000 nM
inhibition of SARS-2-S-driven pseudotype entry [2]: moderate inhibitory activity
Ki (Human uPA): 900 ± 100 nM
Ki (Human C1s): 3100 ± 400 nM
inhibition of VSV-G entry [6]: moderately inhibited
Ki (Human Plasmin): 2400 ± 300 nM
Ki (Human Trypsin-2): 75 ± 3 nM
Ki (Mouse uPA): 45000 ± 6000 nM
Ki (Human Plasma Kallikrein): 26000 ± 1000 nM
Ki [7]: 2900 ± 100 nM
Ki (Human Thrombin): 800 ± 100 nM
Ki (Human Enterokinase): 710 ± 40 nM
Ki (Human Trypsin-1): 190 ± 10 nM
Ki (Human FIXa): 2500 ± 200 nM
Ki (Human Trypsin-6): 100 ± 10 nM
Ki (Rat uPA): 400 ± 100 nM
Ki (Human Granzyme A): > 250000 nM
Ki (Human Trypsin-3): 19 ± 4 nM
Ki (Human HAT): 1500 ± 100 nM
Ki (Rabbit uPA): 800 ± 100 nM
Ki (Human HGFA): 28000 ± 5000 nM
Ki (Human Matriptase-2): 6400 ± 300 nM
Ki (Human TMPRSS11(A)): 390 ± 10 nM
IC50 (Human Prostasin): > 250000 nM
Ki (Human FXIa): 900 ± 100 nM
Ki (Human Kallikrein-11): > 250000 nM
Ki (Human Kallikrein-1): > 250000 nM
Ki [8]: 500 ± 100 nM
